In patent US8754054B2, “Antibacterial compounds, methods of making them, and uses thereof” (Albany Molecular Research, Inc., priority 2010, dated 2014):
In brackets after ≈: the same amount, converted by molar mass.

Each compound was assayed on MRSA 43300 (assay: Antibacterial activity, NCCLS dilution method (Table 9)). Conditions: Staphylococcus aureus, MRSA, MRSA 43300; dilution method; labels marked a tested as a mixture of diastereomers; read-out: MRSA 43300 MIC.
Assay type: cell-based, S. aureus
Outline: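 Susceptibility was tested by the NCCLS dilution method for bacteria that grow aerobically. Procedures followed the NCCLS approved standard (sixth edition) together with its fourteenth informational supplement.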

Compound	MIC [µg/mL]
COC(=O)c1c(C)cc2c(c1O)[C@]1(O)C(=O)c3cc4c(c(O)c3C(=O)[C@]1(OC)[C@H](O)C2)C(=O)C=C(N[C@H]1O[C@@H](C)[C@H](OC)/C(=N/OCCN)[C@H]1OC)C4=O [Example 52, (6R,6aS,14aR)-Methyl 11-((2S,3R,5R,6S,Z)-4-(2-aminoethoxyimino)-3,5-dimethoxy-6-methyltetrahydro-2H-pyran-2-ylamino)-1,6,8,14a-tetrahydroxy-6a-methoxy-3-methyl-7,9,12,14-tetraoxo-5,6,6a,7,9,12,14,14a-octahydrobenzo[a]tetracene-2-carboxylate]	0.12 to 0.25 (≈ 0.159 to 0.332 µM)
COC(=O)c1c(C)cc2c(c1O)[C@]1(O)C(=O)c3cc4c(c(O)c3C(=O)[C@]1(OC)[C@H](O)C2)C(=O)C=C(N[C@H]1O[C@@H](C)[C@H](OC)[C@@H](O)[C@H]1OC)C4(C)O (single isomer, unassigned) [Example 55]	32 (≈ 44.8 µM)

The next lines start with the values.

MIC [µg/mL]	Compound
2 to 4 (≈ 2.5 to 4.99 µM)	CO[C@@H]1[C@@H](O)[C@@H](OC)C(NC2=CC(=O)c3c(cc4c(c3O)C(=O)[C@]3(OC)[C@H](O)Cc5cc(C)c(C(=O)NCCCc6ccccc6)c(O)c5[C@]3(O)C4=O)C2=O)O[C@H]1C (mixture of isomers) [Example 25, (6R,6aS,14aR)-1,6,8,14a-Tetrahydroxy-11-((3R,4R,5R,6S)-4-hydroxy-3,5-dimethoxy-6-methyltetrahydro-2H-pyran-2-ylamino)-6a-methoxy-3-methyl-7,9,12,14-tetraoxo-N-(3-phenylpropyl)-5,6,6a,7,9,12,14,14a-octahydrobenzo[a]tetracene-2-carboxamide]
0.12 to 0.25	COC(=O)c1c(C)cc2c(c1OCc1cccnc1)[C@]1(O)C(=O)c3cc4c(c(O)c3C(=O)[C@]1(OC)[C@H](O)C2)C(=O)C=C(N[C@H]1O[C@@H](C)[C@H](OC)[C@@H](O)[C@H]1OC)C4=O.Cl [Example 11, (6R,6aS,14aR)-Methyl 6,8,14a-trihydroxy-11-((2S,3R,4R,5R,6S)-4-hydroxy-3,5-dimethoxy-6-methyltetrahydro-2H-pyran-2-ylamino)-6a-methoxy-3-methyl-7,9,12,14-tetraoxo-1-(pyridin-3-ylmethoxy)-5,6,6a,7,9,12,14,14a-octahydrobenzo[a]tetracene-2-carboxylate hydrochloride]
32 (≈ 40.1 µM)	CCOC(=O)CCC1(O)C(N[C@H]2O[C@@H](C)[C@H](OC)[C@@H](O)[C@H]2OC)=CC(=N)c2c1cc1c(c2O)C(=O)[C@]2(OC)[C@H](O)Cc3cc(C)c(C(=O)OC)c(O)c3[C@]2(O)C1=O (stereo partly drawn) [Example 59, (6R,6aS,14aR)-methyl 12-(3-ethoxy-3-oxopropyl)-1,6,8,12,14a-pentahydroxy-11-((2S,3R,4R,5R,6S)-4-hydroxy-3,5-dimethoxy-6-methyltetrahydro-2H-pyran-2-ylamino)-9-imino-6a-methoxy-3-methyl-7,14-dioxo-5,6,6a,7,9,12,14,14a-octahydrobenzo[a]tetracene-2-carboxylate]
